According to patent US20250032524A1, “BROAD SPECTRUM AMINOGLYCOSIDES AND USES THEREOF” (REVAGENIX, INC., priority 2022, published 2025):
Like-named read-outs stand apart in the source and are kept apart here.

Columns and labels:
Assay type in all cases: cell-based
[1] = system: all sets of organisms tested (SENTRY clinical isolates); test: Antibacterial surveillance, overall statement; conditions: all sets of organisms tested (Table 3); read-out: MIC50,90 values
Description: (§1) Minimum inhibitory concentrations for representative example compounds herein were determined by a broth microdilution method in accordance with the Clinical and Laboratory Standards Institute (CLSI) guidelines. In brief, organism suspensions were adjusted to a 0.5 McFarland standard to yield a final inoculum between 3×10^5 and 7×10^5 colony-forming units (CFU)/mL. The inoculum was prepared by suspension of a colony from an agar plate that was prepared the previous day. Compound dilutions and inoculum were prepared in sterile, cation adjusted Mueller-Hinton Broth (Beckton Dickinson).
(§2) Bacteria were suspended in sterile saline and added to each assay plate to obtain a final concentration of 5×10^5 CFU/mL. An inoculum volume of 100 μL was added to wells containing 100 μL of broth with 2-fold serial dilutions of the test compound. All inoculated microdilution trays were incubated in ambient air at 35° C. for 18-24 hours. Following incubation, the lowest concentration of the compound that prevented visible growth (OD 600 nm<0.05) is recorded was the MIC. […] Performance of the assay was monitored by the use of laboratory quality-control strains and a standard compound with a defined MIC spectrum (neomycin), in accordance with CLSI guidelines.
Several compounds of the disclosure (Compound 1, 2, and 3) were further evaluated against several hundred bacterial isolates (isolated in the United States and Europe, 1:1) selected from the SENTRY Antimicrobial Surveillance Program (JMI Laboratories, North Liberty, Iowa). The set of clinical isolates included 300 randomly selected Enterobacterales, 103 randomly selected P. aeruginosa, 100 randomly selected A. baumannii-calcoaceticus, 20 randomly selected Methicillin-sensitive S. aureus (MSSA), and 30 randomly selected Methicillin-resistant S. aureus (MRSA). In addition, 101 Enterobacterales and 50 P. aeruginosa isolates with genetically defined mechanisms of aminoglycoside resistance were included. […]

[2] = system: clinical isolates of multi-drug resistant bacterial pathogens including A. baumannii, MRSA, P. aeruginosa, and CRE; test: MIC secondary panel, overall statement; conditions: read-out: minimum inhibitory concentration (MIC) values
Description: as §1, §2
Several compounds of the disclosure (Compounds 1, 2, 3, and 6) were further evaluated against a secondary panel of clinical isolates of multi-drug resistant bacterial pathogens including A. baumannii, methicillin-resistant Staphylococcus aureus (MRSA), P. aeruginosa, and carbapenem-resistant Enterobacteriaceae (CRE).

[3] = system: A. baumannii-calcoaceticus; test: Antibacterial surveillance of clinical isolates (MIC50/90); conditions: 100 isolates
Description: as §1, §2
(§3) Several compounds of the disclosure (Compound 1, 2, and 3) were further evaluated against several hundred bacterial isolates (isolated in the United States and Europe, 1:1) selected from the SENTRY Antimicrobial Surveillance Program (JMI Laboratories, North Liberty, Iowa). The set of clinical isolates included 300 randomly selected Enterobacterales, 103 randomly selected P. aeruginosa, 100 randomly selected A. baumannii-calcoaceticus, 20 randomly selected Methicillin-sensitive S. aureus (MSSA), and 30 randomly selected Methicillin-resistant S. aureus (MRSA). In addition, 101 Enterobacterales and 50 P. aeruginosa isolates with genetically defined mechanisms of aminoglycoside resistance were included. The MIC values at which ≥50% (MIC50) and ≥90% (MIC90) of isolates within a given set are inhibited were determined for each compound against each set of organisms.

[4] = system: P. aeruginosa; test: as above; conditions: Pseudomonas aeruginosa, 103 isolates
Description: as §1, §2, §3

[5] = system: AG-resistant Enterobacterales; test: as above
Description: as §1, §2, §3

[6] = system: AG-resistant P. aeruginosa; test: as above; conditions: Pseudomonas aeruginosa, 50 isolates with defined aminoglycoside resistance
Description: as §1, §2, §3

[7] = system: Enterobacterales; test: as above
Description: as §1, §2, §3

[8] = system: Methicillin-sensitive S. aureus (MSSA); test: as above; conditions: Staphylococcus aureus, MSSA, 20 isolates
Description: as §1, §2, §3

[9] = system: Methicillin-resistant S. aureus (MRSA); test: as above; conditions: Staphylococcus aureus, MRSA, 30 isolates
Description: as §1, §2, §3

[10] = system: A. baumannii; test: MIC broth microdilution (CLSI); conditions: Acinetobacter baumannii
In short: (§4)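 Susceptibility was measured by microdilution in cation-adjusted Mueller-Hinton broth following CLSI guidance, with bacteria at 5×10^5 CFU/mL and incubation at 35° C. for 18-24 hours. Growth inhibition was scored visually, using an OD 600 nm<0.05 cut-off.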

[11] = system: C. freundii; test: MIC broth microdilution (CLSI); conditions: Citrobacter freundii, read-out: Activity (MIC)
In short: as §4

[12] = system: P. aeruginosa; test: MIC broth microdilution (CLSI); conditions: Pseudomonas aeruginosa
In short: as §4

[13] = system: P. mirabilis; test: MIC broth microdilution (CLSI); conditions: Proteus mirabilis; strain APMI1048, MDR Clinical isolate (CDC CRE panel), CDC AR Bank 0159
In short: as §4

[14] = system: K. aerogenes; test: MIC broth microdilution (CLSI); conditions: Klebsiella aerogenes; strain AEAE1042, MDR Clinical isolate (CDC CRE panel), CDC AR Bank 0161
In short: as §4

[15] = system: S. enterica; test: MIC broth microdilution (CLSI); conditions: Salmonella enterica, read-out: Activity (MIC)
In short: as §4

[16] = system: S. aureus; test: MIC broth microdilution (CLSI); conditions: for MIC: Staphylococcus aureus
In short: as §4

[17] = system: E. cloacae; test: MIC broth microdilution (CLSI); conditions: Enterobacter cloacae; strain AECL1089, MDR Clinical isolate (CDC CRE panel), CDC AR Bank 0154
In short: as §4

## NC[C@@H]1CC[C@@H](N)[C@@H](O[C@@H]2[C@@H](N)[C@H](O)[C@@H](NC(=O)[C@@H](O)[C@H](F)CN)[C@H](O)[C@H]2O[C@@H]2O[C@H](CO)[C@@H](O[C@H]3O[C@@H](CN)[C@@H](O)[C@H](O)[C@H]3N)[C@H]2O)O1 [Compound 1, (2R,3R)-4-amino-N-((1R,2S,3S,4R,5R,6S)-3-amino-5-(((2S,3R,4S,5R)-4-(((2R,3R,4R,5S,6S)-3-amino-6-(aminomethyl)-4,5-dihydroxytetrahydro-2H-pyran-2-yl)oxy)-3-hydroxy-5-(hydroxymethyl)tetrahydrofuran-2-yl)oxy)-4-(((2R,3R,6S)-3-amino-6-(aminomethyl)tetrahydro-2H-pyran-2-yl)oxy)-2,6-dihydroxycyclohexyl)-3-fluoro-2-hydroxybutanamide]
[1]
  MIC50: ≤ 16 µg/mL
[2]
  MIC: ≤ 16 µg/mL
[3]; read-out: MIC50
  MIC50: < 16 µg/mL
[3]; read-out: MIC90
  MIC90: < 16 µg/mL
[4]; read-out: MIC50
  MIC50: < 16 µg/mL
[4]; read-out: MIC90
  MIC90: < 16 µg/mL
[5]
  MIC50: < 16 µg/mL
  MIC90: < 16 µg/mL
[6]; read-out: MIC50
  MIC50: < 16 µg/mL
[6]; read-out: MIC90
  MIC90: < 16 µg/mL
[7]
  MIC50: < 16 µg/mL
  MIC90: < 16 µg/mL
[8]; read-out: MIC50
  MIC50: < 16 µg/mL
[8]; read-out: MIC90
  MIC90: < 16 µg/mL
[9]; read-out: MIC50
  MIC50: < 16 µg/mL
[9]; read-out: MIC90
  MIC90: < 16 µg/mL
[10]; read-out: Activity (MIC), strain NABA0007, ΔadeJK efflux
  MIC: < 16 µg/mL
[10]; read-out: Activity (MIC), strain NABA1427, MDR Clinical isolate
  MIC: < 16 µg/mL
[10]; read-out: Activity (MIC), strain NABA1433, MDR Clinical isolate
  MIC: < 16 µg/mL
[10]; read-out: Activity (MIC), strain NABA1434, MDR Clinical isolate
  MIC: < 16 µg/mL
[10]; read-out: Activity (MIC), strain NABA1436, MDR Clinical isolate
  MIC: < 16 µg/mL
[10]; read-out: Activity (MIC), strain NABA1437, MDR Clinical isolate
  MIC: < 16 µg/mL
[10]; read-out: Activity (MIC), strain NABA1438, MDR Clinical isolate
  MIC: < 16 µg/mL
[10]; read-out: Activity (MIC), strain NABA1439, MDR Clinical isolate
  MIC: < 16 µg/mL
[10]; read-out: Activity (MIC), strain NABA1448, MDR Clinical isolate
  MIC: < 16 µg/mL
[10]; read-out: Activity (MIC), strain NABA1449, MDR Clinical isolate
  MIC: < 16 µg/mL
[10]; read-out: Activity (MIC), strain NABA1450, MDR Clinical isolate
  MIC: < 16 µg/mL
[10]; strain NABA0006, WT parent, read-out: Activity (MIC)
  MIC: < 16 µg/mL
[10]; strain NABA0020, AME negative strain, read-out: Activity (MIC)
  MIC: < 16 µg/mL
[11]
  MIC: < 16 µg/mL
[12]; read-out: Activity (MIC), strain NPAE0006, Efflux KO, Aph(3')-IIb
  MIC: < 16 µg/mL
[12]; read-out: Activity (MIC), strain NPAE0010, MexXY over-expressed, Aph(3')-IIb
  MIC: < 16 µg/mL
[12]; read-out: Activity (MIC), strain NPAE1288, MDR Clinical isolate
  MIC: < 16 µg/mL
[12]; read-out: Activity (MIC), strain NPAE1293, MDR Clinical isolate
  MIC: < 16 µg/mL
[12]; read-out: Activity (MIC), strain NPAE1299, MDR Clinical isolate
  MIC: < 16 µg/mL
[12]; read-out: Activity (MIC), strain NPAE1302, MDR Clinical isolate
  MIC: < 16 µg/mL
[12]; read-out: Activity (MIC), strain NPAE1303, MDR Clinical isolate
  MIC: < 16 µg/mL
[12]; read-out: Activity (MIC), strain NPAE1308, MDR Clinical isolate
  MIC: < 16 µg/mL
[12]; read-out: Activity (MIC), strain NPAE1310, MDR Clinical isolate
  MIC: < 16 µg/mL
[12]; read-out: Activity (MIC), strain NPAE1313, MDR Clinical isolate
  MIC: > 16 µg/mL
[12]; read-out: Activity (MIC), strain NPAE1316, MDR Clinical isolate
  MIC: < 16 µg/mL
[12]; read-out: Activity (MIC), strain NPAE1323, MDR Clinical isolate
  MIC: < 16 µg/mL
[12]; strain NPAE0001, WT Aph(3')-IIb, QC, read-out: Activity (MIC)
  MIC: < 16 µg/mL
[12]; strain NPAE0002, WT Aph(3')-IIb, read-out: Activity (MIC)
  MIC: < 16 µg/mL
[12]; strain NPAE0359, aph(3')-IIb KO (tetR), read-out: Activity (MIC)
  MIC: < 16 µg/mL
[13]
  MIC: < 16 µg/mL
[14]
  MIC: < 16 µg/mL
[15]
  MIC: < 16 µg/mL
[16]; ATCC29213, strain NSAU001, wild-type, QC, ATCC 29213
  MIC: < 16 µg/mL
[16]; strain NSAU1004, MDR Clinical isolate
  MIC: < 16 µg/mL
[16]; strain NSAU1015, MDR Clinical isolate
  Activity (MIC): + (MIC threshold for positive activity (+) is ≤16 μg/mL)
[16]; strain NSAU1023, MDR Clinical isolate
  Activity (MIC): + (MIC threshold for positive activity (+) is ≤16 μg/mL)
[16]; strain NSAU1063, MDR Clinical isolate
  Activity (MIC): + (MIC threshold for positive activity (+) is ≤16 μg/mL)
[17]
  MIC: < 16 µg/mL
